Data set [1] concerns the target T1, CYP2C9 (Homo sapiens, UniProt P11712).
T1 construct: pooled, mixed gender, human liver microsomes; from tissue; host or cells: pooled, mixed gender human liver microsomes
As to the kind of experiment: Human CYP fingerprinting, sulfaphenazole inhibitor. The format is in vitro ADME. The note with it: 4 μM, human liver microsomes, 30 min, sulfaphenazole 5 μM. As for the experimental part: (§1) CYP fingerprinting is well established technique and is used as an indication of potential risk of drug-drug interactions in the pharmaceutical sciences. Compounds of the present invention may be assayed by well known methods, essentially as follows: Compounds are incubated at 37° C. at a final concentration of 4 μM with pooled, mixed gender, human liver microsomes and 1 mM NADPH ([…]) (final conc.) for 0 and 30 min. without any CYP inhibitor and with each CYP inhibitor in separate incubations for 30 min. Each inhibitor is specific for an individual cytochrome P450. The specific inhibitors used for CYPs 2C9, 2D6 and 3A were sulfaphenazole, quinidine and ketoconazole, respectively. Ketoconazole (CYP3A) is made up at 25 mM in DMSO and then diluted in buffer to a final concetration of 10 μM. Quinidine (CYP2D6) is made up at 5 mM in 50/50 acetonitrile/water and then diluted in buffer to a final concetration of 10 μM. Sulfaphenazole (CYP2C9) is made up at 100 mM in DMSO and then diluted in buffer to a final concetration of 5 μM. Samples are analyzed by LC-MS in positive or negative electrospray mode using a Waters Acquity Ultra Performance LC coupled to a MicroMass Q-T of-2 mass spectrometer.
(§2) Data are analyzed using MetaboLynx™ version 4.1. With inhibitor present, a reduction in metabolite peak area of less than 30% (relative to the uninhibited control incubation) receives a designation of low risk of Drug Drug Interaction (DDI), a reduction in peak area between 30% and 70% receives a moderate risk of DDI and a reduction of more than 70% receives a high risk of DDI.
On the technique in general: Liver microsomes are vesicles of endoplasmic reticulum, rich in cytochrome P450 enzymes.

Data set [2] concerns CYP3A. Nature of the data set: Human CYP fingerprinting, ketoconazole inhibitor. The format is in vitro ADME. The note with it: 4 μM, human liver microsomes, 30 min, ketoconazole 10 μM. On the procedure:
as §1, §2

Data set [3] addresses T2, hCB-1 (Homo sapiens, UniProt P21554).
T2 construct: purchased Applied Cell Sciences, Rockville, Md; host or cells: CHO cells (membranes)
As to the kind of experiment: hCB1-CHO agonist mode SPA GTP-γ-35S binding assay. The data set is classed as biochemical. As for the experimental part: (§3) Compounds of the present invention may be tested for functional activity at the CB-1 and CB-2 receptors in both agonist and antagonist modes using SPA (Scintillation Proximity Assay) based GTP-γ-^35S binding assays. All assay components are prepared in assay buffer (20 mM HEPES, 100 mM NaCl, 5 mM MgCl2, pH 7.4) at room temperature. Semi-log dilutions of test compound are prepared in assay buffer containing BSA (0.125% final conc.) for the agonist mode assays. For the antagonist mode assays, test compounds are prepared in the same manner but also include an 80% efficacious dose of a full agonist (methanandamide). GTP-γ^35S binding for the antagonist assay may be measured in a 96 well format using a modification of an antibody capture technique previously described. (DeLapp, N W, et al. (1999) J Pharmacol Exp Ther 289:946-955.) The CB-2 receptor agonist activity may be measured using a similar method using hCB2-Sf9 membranes. The CB-1 receptor agonist activity may be measured using a whole membrane capture technique using hCB1-CHO membranes. All incubations are done at room temperature.
hCB1-CHO membrane, GDP (1 μM final conc.), and saponin (10 ng/mL final conc., Sigma, St Louis, Mo.) are combined and prepared on ice as for the antagonist assays, above. Diluted test compounds, GTP-γ-^35S (500 nM final conc.) and membranes are combined in the assay plate and incubated for 30 min. Then 1 mg/well Wheatgerm Agglutinin SPA beads (GE Healthcare, Piscataway, N.J.) are added, plates are sealed and vortexed and incubate for 1 hr. before spinning and counting in the same fashion as for the antagonist assays, above.
(§4) Data are analyzed as follows: Background is subtracted from all wells. Percent agonist efficacy is determine by normalizing agonist/inverse agonist dose response data to the response obtained for a full agonist (methanandamide). Percent antagonist inhibition is calculated by first normalizing the data to the signal generated by a saturating concentration of the full agonist (methanandamide). Then the data are analyzed using a 4-parameter logistic reduced fit (Activity Base™ and XLFit3™ from IDBS, Emeryville, Calif.). Kb values are determined using a modification of the Cheng-Prusoff relationship: Kb=IC50/(1+[agonist]/EC50), where “IC50” is determined from a four parameter fit of displacement curves, “[agonist]” is the agonist challenge concentration (nM), and “EC50” is determined from a four parameter fit of a full agonist concentration response curve (Cheng and Prusoff 1973). Mean Kb values are calculated as a mean of at least three independent determinations±standard error of the mean (SEM). (Cheng Y C and Prusoff W H. (1973), Biochem Pharmacol 22:3099-3108.) Exemplified compounds are found to be potent CB-1 inverse agonists (Kb≦10 nM, typically <2 nM) and to be selective over the CB-2 receptor (Kb CB-2/Kb CB-1>500, typically >1000).
On the technique in general: GTPγS is a poorly hydrolysed GTP analogue; its binding reports G protein activation.

Data set [4] concerns the target T2, hCB-1. Nature of the data set: hCB1-CHO antagonist mode SPA GTP-γ-35S binding assay. The format is biochemical. The note with it: human CB-1 CHO membranes, antagonist mode vs methanandamide; read-out: hCB-1 SPA GTPγS CHO Membrane Antagonist Kb. As for the experimental part: as §3
(§5) hCB1-CHO and rCB1-CHO Antagonist Assays:
hCB1-CHO or rCB1-CHO membranes (Applied Cell Sciences, Rockville, Md.) and GDP (1 μM final) are added to ice cold assay buffer and homogenized. Diluted compounds, GTP-γ-^35S (500 nM final conc.) and membranes are added to wells of an assay plate and incubated for 30 min. at room temperature. Next, a mixture containing Nonidet P40 detergent (0.2% final conc.), rabbit polyclonal IgG Gαi-3 antibody (provided by Covance, Princeton, N.J.), and 1.25 mg anti-rabbit antibody scintillation proximity assay beads (GE Healthcare, Piscataway, N.J.) is added. The plates are sealed, vortexed, and incubated for an additional 2 hr. Plates are then centrifuged at 700×g for 10 min. and the radioactivity counted.
Data are analyzed as follows: Background is subtracted from all wells. […] Percent antagonist inhibition is calculated by first normalizing the data to the signal generated by a saturating concentration of the full agonist (methanandamide). Then the data are analyzed using a 4-parameter logistic reduced fit (Activity Base™ and XLFit3™ from IDBS, Emeryville, Calif.). Kb values are determined using a modification of the Cheng-Prusoff relationship: Kb=IC50/(1+[agonist]/EC50), where “IC50” is determined from a four parameter fit of displacement curves, “[agonist]” is the agonist challenge concentration (nM), and “EC50” is determined from a four parameter fit of a full agonist concentration response curve (Cheng and Prusoff 1973). Mean Kb values are calculated as a mean of at least three independent determinations±standard error of the mean (SEM). […]

Data set [5] deals with T3, CYP2D6 (Homo sapiens, UniProt P10635).
T3 construct: pooled, mixed gender, human liver microsomes; from tissue; host or cells: pooled, mixed gender human liver microsomes
T3 sequence (P10635 whole entry): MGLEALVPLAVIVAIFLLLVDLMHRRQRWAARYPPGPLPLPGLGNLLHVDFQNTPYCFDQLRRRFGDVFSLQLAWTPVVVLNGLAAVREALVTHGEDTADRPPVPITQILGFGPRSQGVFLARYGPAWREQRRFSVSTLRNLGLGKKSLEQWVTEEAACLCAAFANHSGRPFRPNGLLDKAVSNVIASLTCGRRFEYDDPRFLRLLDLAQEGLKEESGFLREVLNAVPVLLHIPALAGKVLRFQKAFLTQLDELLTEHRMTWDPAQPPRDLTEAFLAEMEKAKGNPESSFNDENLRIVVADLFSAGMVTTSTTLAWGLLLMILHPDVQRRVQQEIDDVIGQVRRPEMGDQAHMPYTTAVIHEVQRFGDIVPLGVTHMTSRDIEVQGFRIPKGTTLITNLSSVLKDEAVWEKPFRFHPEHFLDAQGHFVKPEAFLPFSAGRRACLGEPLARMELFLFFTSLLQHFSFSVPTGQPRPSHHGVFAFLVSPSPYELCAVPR
As to the kind of experiment: Human CYP fingerprinting, quinidine inhibitor. The format is in vitro ADME. Conditions: 4 μM, human liver microsomes, 30 min, quinidine 10 μM. On the procedure:
as §1, §2

Data set [6] has as its target T4, hCB-2 (Homo sapiens, UniProt P34972).
T4 construct: purchased Perkin Elmer, Boston, Mass; host or cells: Sf9 insect cells (membranes)
Nature of the data set: hCB2-Sf9 agonist mode SPA GTP-γ-35S binding assay. The data set is classed as biochemical. The note with it: human CB-2 Sf9 membranes, read-out: hCB-2 SPA GTPγS Sf9 Membrane Agonist Relative EC50. As for the experimental part:
as §3
The hCB2-5f9 assay is run essentially as for the hCB1-sf9 and hCB2-sf9 antagonist assays above, with no challenging agonist added. 1 μM (final conc.) GDP is added to the membrane solution and nonidet P40, anti-Gi-antibody, and SPA bead are added together in a cocktail.
as §4

Data set [7] addresses T5, rCB-1 (Rattus norvegicus, UniProt P20272).
T5 construct: purchased Applied Cell Sciences, Rockville, Md; host or cells: CHO cells (membranes)
As to the kind of experiment: rCB1-CHO antagonist mode SPA GTP-γ-35S binding assay. The format is biochemical. Conditions: rat CB-1 CHO membranes, antagonist mode vs methanandamide; read-out: rCB-1 SPA GTPγS CHO Membrane Antagonist Kb. On the procedure:
as §3, §5
hCB1-CHO or rCB1-CHO membranes (Applied Cell Sciences, Rockville, Md.) and GDP (1 μM final) are added to ice cold assay buffer and homogenized. […] Plates are then centrifuged at 700×g for 10 min. and the radioactivity counted.
Data are analyzed as follows: Background is subtracted from all wells. […] Percent antagonist inhibition is calculated by first normalizing the data to the signal generated by a saturating concentration of the full agonist (methanandamide). Then the data are analyzed using a 4-parameter logistic reduced fit (Activity Base™ and XLFit3™ from IDBS, Emeryville, Calif.). Kb values are determined using a modification of the Cheng-Prusoff relationship: Kb=IC50/(1+[agonist]/EC50), where “IC50” is determined from a four parameter fit of displacement curves, “[agonist]” is the agonist challenge concentration (nM), and “EC50” is determined from a four parameter fit of a full agonist concentration response curve (Cheng and Prusoff 1973). […]

Data set [8] addresses T4, hCB-2. Nature of the data set: hCB2-Sf9 antagonist mode SPA GTP-γ-35S binding assay. The data set is classed as biochemical. Conditions: human CB-2 Sf9 membranes, antagonist mode vs methanandamide; read-out: hCB-2 SPA GTPγS Sf9 Membrane Antagonist Kb. As for the experimental part:
as §3
hCB1-Sf9 and hCB2-Sf9 antagonist Assays:
hCB1-5f9 and hCB2-5f9 membranes (Perkin Elmer, Boston, Mass.) are prepared essentially as above with 1 μM (final conc.) GDP for hCB1-5f9 and 0.05 μM (final conc.) GDP for hCB2-5f9. The assay is run essentially as described for the CHO membranes above. Diluted membranes are pre-incubated with test compound for 15 min., which is followed by addition of GTP-γ-^35S and a further 35 min. incubation. Nonidet P40 and anti-Gi-antibody are added sequentially with a 15 min. incubation after each addition. The SPA beads are then added, the plates are sealed and vortexed, and then incubated at room temperature for 1 hr.
Data are analyzed as follows: Background is subtracted from all wells. Percent agonist efficacy is determine by normalizing agonist/inverse agonist dose response data to the response obtained for a full agonist (methanandamide). Percent antagonist inhibition is calculated by first normalizing the data to the signal generated by a saturating concentration of the full agonist (methanandamide). Then the data are analyzed using a 4-parameter logistic reduced fit (Activity Base™ and XLFit3™ from IDBS, Emeryville, Calif.). Kb values are determined using a modification of the Cheng-Prusoff relationship: Kb=IC50/(1+[agonist]/EC50), where “IC50” is determined from a four parameter fit of displacement curves, “[agonist]” is the agonist challenge concentration (nM), and “EC50” is determined from a four parameter fit of a full agonist concentration response curve (Cheng and Prusoff 1973). Mean Kb values are calculated as a mean of at least three independent determinations±standard error of the mean (SEM). […]

The nature of data set [9]: Rat oral bioavailability. The data set is classed as in vivo. Conditions: Sprague-Dawley, plasma, fasted male SD rats, IV 0.25 mg/kg, PO 1 mg/kg, based on AUC0-24hr, mean s.d., n=3. As for the experimental part:
Methods for accessing bioavailability are well appreciated in the art. One such reference is Medicinal Research Reviews Vol 21 No. 5 382-396 (2001). Bioavailability of compounds may be estimated essentially as follows.
Cohorts of three or four 250-450 gram male Sprague-Dawley rats or approximately 10 kg Beagle dogs (female or male) are used. […] Dogs are administered i.v. by cannulated cephalic vein and blood collections are by jugular vein. Animals are first dosed at 0.25 mg/kg i.v. and blood samples (0.2 mL) are then collected using EDTA as an anticoagulant at 0.0830, 0.25, 0.50, 1, 2, 4, 8, 12, 24, 48, 72, 96, and 120 hours. Next after at least two days and after 18-24 hours fasting, the animals are dosed at 1.0 mg/kg by oral gavage. During the course of a study the total of blood (ml) collected is not to exceed 1% of total body weight in grams. Should larger blood volumes be required, the sampled blood volume is replace with heparinized whole blood from a donor animal. When using a cross-over study design, rats receive a volume of heparinized whole blood following the final sample of each study day approximately equal to that removed during study.
Compound plasma concentrations are measured by LC/MS/MS assays. Data are then analyzed using standard non-compartmental pharmacokinetic analysis. […]

T2 sequence (P21554 whole entry): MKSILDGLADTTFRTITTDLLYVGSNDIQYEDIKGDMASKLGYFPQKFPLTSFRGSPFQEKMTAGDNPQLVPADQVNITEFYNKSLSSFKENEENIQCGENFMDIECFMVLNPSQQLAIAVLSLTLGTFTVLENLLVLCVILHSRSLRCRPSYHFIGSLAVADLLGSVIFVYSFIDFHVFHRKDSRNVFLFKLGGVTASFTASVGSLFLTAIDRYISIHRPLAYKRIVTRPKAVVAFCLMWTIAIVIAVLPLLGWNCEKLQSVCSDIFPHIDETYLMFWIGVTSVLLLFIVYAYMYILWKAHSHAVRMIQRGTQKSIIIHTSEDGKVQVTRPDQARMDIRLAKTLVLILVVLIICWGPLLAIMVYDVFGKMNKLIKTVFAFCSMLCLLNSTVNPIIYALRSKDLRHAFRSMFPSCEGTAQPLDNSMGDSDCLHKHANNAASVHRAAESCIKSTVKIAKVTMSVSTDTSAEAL
T4 sequence (P34972 whole entry): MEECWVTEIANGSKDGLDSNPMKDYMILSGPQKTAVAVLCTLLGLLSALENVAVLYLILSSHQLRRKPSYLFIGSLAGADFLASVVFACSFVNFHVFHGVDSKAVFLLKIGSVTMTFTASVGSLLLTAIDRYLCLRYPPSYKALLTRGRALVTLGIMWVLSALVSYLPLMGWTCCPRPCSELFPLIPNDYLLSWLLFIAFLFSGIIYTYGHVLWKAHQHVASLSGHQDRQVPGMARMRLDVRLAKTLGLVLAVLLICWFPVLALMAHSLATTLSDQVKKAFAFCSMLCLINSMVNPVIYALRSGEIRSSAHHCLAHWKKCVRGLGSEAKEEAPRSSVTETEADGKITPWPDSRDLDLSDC
T5 sequence (P20272 whole entry): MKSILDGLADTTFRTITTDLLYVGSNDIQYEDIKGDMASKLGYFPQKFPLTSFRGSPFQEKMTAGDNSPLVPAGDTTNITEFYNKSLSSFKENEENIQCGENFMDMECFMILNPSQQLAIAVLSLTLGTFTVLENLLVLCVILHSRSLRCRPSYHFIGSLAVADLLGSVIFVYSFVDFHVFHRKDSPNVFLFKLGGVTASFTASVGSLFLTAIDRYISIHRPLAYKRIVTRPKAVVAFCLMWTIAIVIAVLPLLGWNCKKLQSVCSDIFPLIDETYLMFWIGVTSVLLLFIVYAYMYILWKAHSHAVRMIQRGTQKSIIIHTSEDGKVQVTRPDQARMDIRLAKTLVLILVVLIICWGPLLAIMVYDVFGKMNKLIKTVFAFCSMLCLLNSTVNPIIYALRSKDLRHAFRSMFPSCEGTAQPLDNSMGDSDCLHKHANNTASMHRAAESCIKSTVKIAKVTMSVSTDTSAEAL
T1 sequence (P11712 whole entry): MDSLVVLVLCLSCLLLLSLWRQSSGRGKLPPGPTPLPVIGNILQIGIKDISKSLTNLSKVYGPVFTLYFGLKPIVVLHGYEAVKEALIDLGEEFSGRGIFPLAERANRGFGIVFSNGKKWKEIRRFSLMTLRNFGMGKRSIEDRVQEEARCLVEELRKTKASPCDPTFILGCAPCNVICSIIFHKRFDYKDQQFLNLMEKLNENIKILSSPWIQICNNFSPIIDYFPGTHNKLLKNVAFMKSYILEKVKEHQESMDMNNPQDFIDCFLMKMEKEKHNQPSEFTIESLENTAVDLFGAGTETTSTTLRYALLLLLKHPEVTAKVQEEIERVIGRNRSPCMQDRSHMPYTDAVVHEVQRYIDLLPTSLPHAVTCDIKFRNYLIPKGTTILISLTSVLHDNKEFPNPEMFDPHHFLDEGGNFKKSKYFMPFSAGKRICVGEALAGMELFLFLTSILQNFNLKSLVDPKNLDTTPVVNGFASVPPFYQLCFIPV

Broadly, the EC50 is the concentration needed to bring the measured effect to its halfway point. In general, Kb refers to the equilibrium dissociation constant of an antagonist, usually derived from a functional assay. On to `CC(C)(N[C@@H]1C[C@H](c2ccccc2)N(c2ccc(OC(F)(F)F)cc2)C1=O)c1ccnc(C(F)(F)F)n1` [Example 4], for which, in data set [1], the “Risk of Drug Drug Interaction (DDI) CYP2C9” value is given as “low (a reduction in metabolite peak area of less than 30% (relative to the uninhibited control incubation) receives a designation of low risk of Drug Drug Interaction (DDI))”. Moreover, the “Risk of Drug Drug Interaction (DDI) CYP3A” value in [2] was “low (a reduction in metabolite peak area of less than 30% (relative to the uninhibited control incubation) receives a designation of low risk of Drug Drug Interaction (DDI))”. Moreover, the EC50 in data set [3] (human CB-1 CHO membranes, agonist mode (inverse agonism), read-out: hCB-1 SPA GTPγS CHO Membrane Agonist Relative EC50 inverse) came to 2.52 nM; in data set [6], 288 nM. Moreover, the “hCB-1 SPA GTPγS CHO Membrane Agonist % Relative Efficacy” value in [3] (normalized to full agonist methanandamide, below zero = inverse agonist) is given as −105%. Moreover, the Kb in data set [4] was 0.83 nM; in data set [7], 0.176 nM; in [8], 288 nM. For the same molecule, the “Risk of Drug Drug Interaction (DDI) CYP2D6” value in data set [5] is “low (a reduction in metabolite peak area of less than 30% (relative to the uninhibited control incubation) receives a designation of low risk of Drug Drug Interaction (DDI))”.

As usually defined, the bioavailability is dose-corrected exposure relative to a reference, in per cent. A lower bioavailability goes with little systemic uptake. As to `CC(C)(N[C@@H]1C[C@H](c2cccc(OC(F)(F)F)c2)N(c2ccc(C(F)(F)F)cc2)C1=O)c1ccnc(C(F)(F)F)n1.Cc1ccc(S(=O)(=O)O)cc1` [Example 5, (3R,5R)-3-[1-Methyl-1-(2-trifluoromethyl-pyrimidin-4-yl)-ethylamino]-5-(3-trifluoromethoxy-phenyl)-1-(4-trifluoromethyl-phenyl)-pyrrolidin-2-one tosylate], the “Risk of Drug Drug Interaction (DDI) CYP3A” value in [2] is “low (a reduction in metabolite peak area of less than 30% (relative to the uninhibited control incubation) receives a designation of low risk of Drug Drug Interaction (DDI))”. In data set [9], the bioavailability came to 51%. In addition, the “Risk of Drug Drug Interaction (DDI) CYP2D6” value in data set [5] is listed as “low (a reduction in metabolite peak area of less than 30% (relative to the uninhibited control incubation) receives a designation of low risk of Drug Drug Interaction (DDI))”.
